The NIST ThermoML archive (doi:10.1021/acs.jced.8b00067)
± gives the expanded uncertainty stated by the source.

What was measured:
[1] = 101.3 kPa, Liquid, Vibrating tube method
[2] = xn = mol fraction of the nth substance listed; settings: 101.3 kPa, Liquid, Vibrating tube method

C1COCCO1 [1,4-dioxane]
[1]
Settings	mass density [kg/m3]
288.15 K	1039.12 ± 1
298.15 K	1027.84 ± 1
308.15 K	1016.57 ± 1
318.15 K	1005.29 ± 1

C1COCCO1 [1,4-dioxane] + CC(C)O
mass density [kg/m3], [2]
Settings	288.15 K	298.15 K	308.15 K	318.15 K
x1 = 0.05	802.95 ± 0.81	794.39 ± 0.8	785.56 ± 0.79	776.41 ± 0.79
x1 = 0.15	829.25 ± 0.84	820.23 ± 0.83	810.98 ± 0.82	801.46 ± 0.81
x1 = 0.25	855.23 ± 0.86	845.83 ± 0.85	836.22 ± 0.84	826.38 ± 0.84
x1 = 0.35	880.71 ± 0.89	870.97 ± 0.88	861.05 ± 0.87	850.93 ± 0.86
x1 = 0.449	905.45 ± 0.92	895.43 ± 0.91	885.24 ± 0.9	874.87 ± 0.89
x1 = 0.5	918.21 ± 0.93	908.04 ± 0.92	897.73 ± 0.91	887.25 ± 0.9
x1 = 0.55	930.47 ± 0.94	920.18 ± 0.93	909.74 ± 0.92	899.16 ± 0.91
x1 = 0.651	955.14 ± 0.96	944.61 ± 0.95	933.97 ± 0.94	923.2 ± 0.93
x1 = 0.75	979.12 ± 0.98	968.37 ± 0.97	957.54 ± 0.96	946.6 ± 0.95
x1 = 0.85	1003.42 ± 1	992.5 ± 1	981.49 ± 0.99	970.39 ± 0.97
x1 = 0.95	1027.3 ± 1	1016.17 ± 1	1004.99 ± 1	993.74 ± 1
x1 = 1	1039.12 ± 1	1027.84 ± 1	1016.57 ± 1	1005.29 ± 1
